# Results as given in patent publication US8507440B2, “Protein kinase C peptides for use in withdrawal” (The Board of Trustees of the Leland Stanford Junior …, priority 2002, dated 2013).
# Ends that are not written are not given here.
# Assays:
# [1] = test system: N-methyl-D-aspartate (NMDA) receptor currents; test: alcohol withdrawal hyperresponsiveness of NMDA-evoked currents in lumbar spinal cord slice motor neurons; assay type: cell-based, rat
# From the text: Spinal cords were taken from young rats, and slices of these cords were made and placed in artificial cerebrospinal fluid for patch clamp electrophysiological analysis, to characterize the ability of γPKC peptides to mediate alcohol withdrawal hyperresponsiveness of N-methyl-D-aspartate (NMDA) receptor currents. FIG. 7A is a schematic diagram of the technique, where a lumbar spinal cord slice 10 is shown. The placement of a recording electrode 12 and a pipette 14 for application of NMDA relative to a motor neuron 16 is illustrated.
# Sprague-Dawley rats at postnatal day 7-10 were anesthetized with halothane, decapitated, and the spinal cords were quickly removed. Slices […] thick were sectioned from the lumbar region. Whole cell voltage clamp recordings were made from visually-identified motor neurons using infrared video microscopy, a 60× water immersion lens, and a MultiClamp 700A patch clamp amplifier. Cells were held at a holding potential of −60 mV in artificial cerebrospinal fluid (ACSF) containing bicuculline methiodide ([…]), strychnine ([…]), and tetrodotoxin ([…]). Postsynaptic currents were evoked by direct pressure application of 2 mM N-methyl-D-aspartate (NMDA) from a pipette positioned near the recorded cell at 1-2 min intervals, as illustrated in FIG. 7A. The area of evoked currents during and following 100 mM ethanol (EtOH) application was measured and normalized to the average baseline current area during the 10 minutes preceding EtOH application. Data are expressed as mean +/−SEM: Statistical significance was determined by one-way ANOVA followed by Dunn's or Tukey's multiple comparison test with significance set at p<0.05.
# [2] = test system: isolated spinal cords; test: slow ventral root potential (sVRP) of isolated spinal cord, naloxone-precipitated morphine withdrawal hyperresponsiveness; assay type: cell-based, rat; settings: for sVRP area 30 minutes after naloxone / block of naloxone-precipitated withdrawal hyperresponsiveness of sVRP: morphine 200 nM then naloxone 200 nM, GF109203X 1.2 μM, Go6976 1 μM, εV1-2 2 nM; for block of naloxone-precipitated withdrawal hyperresponsiveness of sVRP: γV5-3 4 nM, Tat 2-4 nM
# From the text: The slow ventral root potential (sVRP) is an electrophysiolgical measurement of nociceptive-related response in the spinal cord lasting approximately 40 seconds (Yanagisawa et al., Eur. J. Pharmacol., 106:231-239 (1984); Akagi H. et al., British J. Pharmacol., 84:663-673 (1985); Otsuka M. et al., J. Physiol., 395:255-270 (1988)). It is evoked by stimulation of a lumbar dorsal root at an intensity sufficient to activate small diameter afferents that transmit nociceptive (painful) stimuli from the periphery to the spinal cord (Lozier A. P. et al., J. Neurophysiol., 74:1001-1009 (1995)). […] Thus, the sVRP is related to pain, and its exaggeration following naloxone is a manifestation of withdrawal which translates to an increase in pain sensation in vivo.
# Spinal cords from 4-7 day old rats (Charles River Laboratories) were removed and arranged for electrophysiological recording of the slow ventral root potentials (sVRP) (Woodley S. J., et al., Brain Res., 559:17-21 (1991). Briefly, pups were decapitated under halothane anesthesia and the spinal cord removed to an oxygenated artificial cerebrospinal fluid solution. A suction stimulating electrode was placed on a lumbar dorsal root and a suction recording electrode on the corresponding ipsilateral ventral root. Square wave stimuli 0.2 ms in duration were administered at a constant frequency of 1/50 seconds throughout the experiment. Test agents were applied and the responses were recorded, digitized, and area under the curve measured.
# After a baseline reading of the sVRP, morphine (200 nM) was applied to the isolated spinal cords. The sVRP was again recorded to characterize the response to morphine. Naloxone (200 nM) was then applied and the sVRPs recorded.
# FIGS. 2A-2D show the results after application of non-specific PKC antagonist, GF109203X (1.2 μM), and of an inhibitor specific to Ca++-dependent PKC isoforms, Go6976 (1 μM).
# FIGS. 3A-3B show the results after application of the εPCK antagonist (εV1-2; SEQ ID NO:1, 2 nM), conjugated to a peptide carrier (Tat; SEQ ID NO:3) and the Tat peptide alone (2 nM; SEQ ID NO:3). FIGS. 3C-3D show the results after application of γPKC (γV5-3; SEQ ID NO:2, 4 nM) conjugated to a peptide carrier (Tat; SEQ ID NO:3) and of the Tat peptide alone (4 nm; SEQ ID NO:3).
# [3] = test system: postnatal day 7 rats; test: naloxone-precipitated morphine withdrawal, mechanical threshold and thermal paw withdrawal latency in vivo; design: species or system rat; settings: for block of naloxone-precipitated morphine withdrawal allodynia and hyperalgesia: 10 μM in 5 μl intrathecally prior to morphine 1 mg/kg s.c., naloxone 0.25 mg/kg 30 min after morphine
# Method: In vivo studies on opiate withdrawal allodynia and hyperalgesia were conducted using postnatal day 7 rats. As described in Example 2, postnatal day 7 rats were given morphine subcutaneously followed 30 minutes later by naloxone or saline. Mechanical threshold using von Frey filaments to produce the flexion withdrawal response of the hind paw and thermal stimulation to measure the paw withdrawal latency were measured as described in Example 2.
# FIG. 5A illustrates a treatment protocol where rat pups were given a PKC antagonist intrathecally (e.g., directly into the cerebrospinal fluid surrounding the spinal cord) prior to subcutaneous morphine delivery. Thirty minutes after morphine delivery, naloxone was administered, followed by mechanical allodynia and thermal hyperalgesia testing (as described in Example 2).
# Postnatal day 7 Sprague-Dawley rats (Charles River Laboratories) of both sexes were used. For all behavioural experiments rats were maintained at nesting temperature with overhead heatlamps.
# To measure mechanical thresholds, rats were placed on an elevated wire mesh (2 mm openings). Von Frey hairs (Stoelting Co., WoodDale, Ill., USA) were used to elicit a cutaneous flexion withdrawal response as described by Fitzgerald et al. (Fitzgerald M., et al., PAIN […] INFANTS, CHILDREN AND ADOLESCENTS; Schetchter and Yaster, Eds., pp 11-32, Williams and Williams (Baltimore, Md.) (1993). Von Frey hairs of increasing intensity were applied three times to the plantar surface of the left hind paw until a paw withdrawal was elicited. The lowest intensity Von Frey hair required to produce a withdrawal reflex was recorded as the response threshold to a low-intensity mechanical stimulus.
# Thermal paw withdrawal latencies were measured using the Ugo Basile Plantar Testing apparatus (Stoelting Co., WoodDale, Ill., USA). Briefly, postnatal day 7 rats were placed under inverted Plexiglas enclosures and the plantar surface of the left hindpaw was heated from below with the IR intensity of the lamp set at 30. Two baseline thermal response latency measures were collected prior to morphine administration with a cut-off of 20 seconds enlisted to prevent tissue damage.
# Postnatal day 7 rats were administered 1 mg/kg morphine sulfate (Sigma) subcutaneously in 50 μl saline. Mechanical thresholds were measured 15 minutes later to establish analgesia. Rats were returned to their dam. At 30 or 120 minutes post morphine, rats were administered 0.25 mg/kg naloxone (Sigma) subcutaneously in 50 μl saline. Mechanical thresholds and thermal paw withdrawal latencies were measured in 10 minute intervals. Tat conjugated peptide inhibitors specific to the ε (εV1-2; SEQ ID NO:1, 10 μM) and γ ([…]; SEQ ID NO:2, 10 μM) isoforms of PKC, Tat carrier (10 μM), or saline were administered in 5 μl volumes intrathecally via direct lumbar puncture using a sterile 29 gauge 3/10 cc insulin syringe in rats lightly anesthetized with halothane. To allow for complete recovery from anesthetic, animals were administered peptides or control solutions 30 minutes prior to naloxone.
# An unpaired T-test was used to determine the significance of post-naloxone measures from baseline measures. Significance between treatment groups for PKC inhibitor studies both in vivo and in vitro was determined by one way analysis of variance (ANOVA) followed by a post-hoc Bonferroni analysis. P-values<0.05 were considered significant. All statistical analysis was done with GraphPad Prism version 3.02.
# [4] = test system: 7 day old and 21 day old rats; test: ethanol withdrawal mechanical allodynia testing (von Frey threshold withdrawal force); assay type: in vivo, rat
# [5] = test system: 7 day old and 21 day old rats; test: ethanol withdrawal thermal hyperalgesia testing (paw withdrawal latency); assay type: in vivo, rat; settings: 7 day old rats; intrathecally 4 hours after 4 g/kg 15% EtOH
compound,measurement,setting,value
"O=C(O)CN(CC(=O)O)c1ccccc1OCCOc1ccccc1N(CC(=O)O)CC(=O)O [BAPTA, 1,2-bis(2-aminophenoxy)ethane-N,N,N′,N′-tetraacetic acid, reference compound]",ethanol withdrawal hyperresponsiveness of NMDA-evoked currents with calcium chelator,[1]; 30 mM in recording pipette,no ethanol-withdrawal hyperresponsiveness
CN(C)CCCn1cc(C2=C(c3c[nH]c4ccccc34)C(=O)NC2=O)c2ccccc21 [GF109203X],sVRP area 30 minutes after naloxone,[2],87 % of control
same,block of naloxone-precipitated withdrawal hyperresponsiveness of sVRP,[2],blocked the withdrawal hyperresponsivess
Cn1c2ccccc2c2c3c(c4c5ccccc5n(CCC#N)c4c21)CNC3=O [Go6976],sVRP area 30 minutes after naloxone,[2],127.4 % of control
same,block of naloxone-precipitated withdrawal hyperresponsiveness of sVRP,[2],did not block withdrawal
COc1ccc2c(c[n+](C)c3c4cc5c(cc4ccc23)OCO5)c1OC [chelerythrine],sVRP area 30 minutes after naloxone,[2],100.1 % of control
same,block of naloxone-precipitated withdrawal hyperresponsiveness of sVRP,[2],did block morphine withdrawal
same,effect on the response to morphine,[2]; morphine-exposed spinal cords,did not alter the response to morphine
CN1CC[C@]23c4c5ccc(O)c4O[C@H]2[C@@H](O)C=C[C@H]3[C@H]1C5 [morphine],effect of morphine on sVRP,[2]; morphine 200 nM,depressed
same,paw withdrawal threshold and latency after morphine,"[3]; morphine 1 mg/kg s.c., then saline",exhibited profound analgesia
C=CCN1CC[C@]23c4c5ccc(O)c4O[C@H]2C(=O)CC[C@@]3(O)[C@H]1C5 [naloxone],sVRP area 30 minutes after naloxone,[2],140.9 % of control
same,"mechanical threshold and paw withdrawal latency, naloxone after morphine",[3]; naloxone 0.25 mg/kg s.c. following 30 minutes of morphine exposure,precipitated mechanical allodynia and thermal hyperalgesia
same,"mechanical threshold and paw withdrawal latency, naloxone alone",[3]; no morphine,did not alter paw withdrawal thresholds to mechanical stimulation or paw withdrawal latency to thermal stimulation
"Tat: Tat-derived carrier peptide (Tat 47-57), control for the conjugated inhibitors",block of naloxone-precipitated withdrawal hyperresponsiveness of sVRP,[2],did not block the withdrawal response
same,block of naloxone-precipitated morphine withdrawal allodynia and hyperalgesia,[3],did not prevent allodynia and hyperalgesia
same,effect on ethanol withdrawal hyperresponsiveness of NMDA-evoked currents,[1]; 10 nM Tat carrier alone,does not prevent the symptom
"εV1-2: εPKC antagonist peptide, SEQ ID NO:1, isozyme-specific translocation inhibitor, used Tat-conjugated (EAVSLKPT; also: Tat peptide conjugate; listed as Homo sapiens)","mechanical allodynia, threshold withdrawal force","[4]; 7 day old rats, 5 μL of 20 μM intrathecally 5 hours after 4 g/kg 15% EtOH i.p., 6 and 7 hour post-EtOH, versus Tat carrier",attenuated mechanical allodynia
same,"mechanical allodynia, threshold withdrawal response","[4]; 21 day old rats, 10 μL of 20 μM intrathecally 4 hours after 4 g/kg 15% EtOH i.p.",slightly attenuated the response at 6 hours and 8 hours post ethanol injection
same,"thermal hyperalgesia, paw withdrawal latency",[5],completely prevented thermal hyperalgesia
same,effect on sVRP of inhibitor alone,[2]; absence of morphine,did not alter the sVRP
same,sVRP area 30 minutes after naloxone,[2],102 % of control
same,block of naloxone-precipitated withdrawal hyperresponsiveness of sVRP,[2],blocked withdrawal hyperresponsiveness
same,block of naloxone-precipitated morphine withdrawal allodynia and hyperalgesia,[3],effective to block naloxone-precipitated morphine withdrawal allodyina and hyperalgesia
